“And” between values parts separate entries of the source, which are not always exact repeats. Equal entries are not always repeated. Inconclusive results and toxic doses are left out. Cut-off read from the data, not from the text of the source: active = T/C of 150% or more; inactive = T/C below 125%.
System: L1210 leukemia ip in BDF1 mice, survival T/C
Experiment: NCI In Vivo Anticancer Drug Screen. Data for tumor model L1210 Leukemia (intraperitoneal) in B6D2F1 (BDF1) mice
Conditions: endpoint: mean survival time, higher = longer survival
Outline: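 Each compound was tested against a transplantable tumor grown in mice. The endpoint was survival, with treated animals benchmarked against vehicle controls as a simple ratio.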

[1] = dose: 25.0 mg/kg/injection, schedule: Q04DX003 (ip), vehicle: saline
[2] = dose: 100.0 mg/kg/injection, schedule: Q01DX001 (ip), vehicle: saline
[3] = dose: 100.0 mg/kg/injection, schedule: Q04DX003 (ip), vehicle: saline with Tween-80
[4] = dose: 150.0 mg/kg/injection, schedule: Q04DX003 (ip), vehicle: saline
[5] = dose: 200.0 mg/kg/injection, schedule: Q04DX003 (ip), vehicle: saline with Tween-80
[6] = dose: 400.0 mg/kg/injection, schedule: Q04DX003 (ip), vehicle: saline with Tween-80
[7] = dose: 100.0 mg/kg/injection, schedule: Q01DX009 (ip), vehicle: Klucel (hydroxypropylcellulose) (HPC)
[8] = dose: 100.0 mg/kg/injection, schedule: Q04DX003 (ip), vehicle: Klucel (hydroxypropylcellulose) (HPC)
[9] = dose: 200.0 mg/kg/injection, schedule: Q01DX009 (ip), vehicle: Klucel (hydroxypropylcellulose) (HPC)
[10] = dose: 200.0 mg/kg/injection, schedule: Q04DX003 (ip), vehicle: Klucel (hydroxypropylcellulose) (HPC)
[11] = dose: 400.0 mg/kg/injection, schedule: Q01DX009 (ip), vehicle: Klucel (hydroxypropylcellulose) (HPC)
[12] = dose: 400.0 mg/kg/injection, schedule: Q04DX003 (ip), vehicle: Klucel (hydroxypropylcellulose) (HPC)
[13] = dose: 100.0 mg/kg/injection, schedule: Q01DX001 (ip), vehicle: Klucel (hydroxypropylcellulose) (HPC)
[14] = dose: 100.0 mg/kg/injection, schedule: Q04DX002 (ip), vehicle: Klucel (hydroxypropylcellulose) (HPC)
[15] = dose: 200.0 mg/kg/injection, schedule: Q01DX001 (ip), vehicle: Klucel (hydroxypropylcellulose) (HPC)
[16] = dose: 200.0 mg/kg/injection, schedule: Q04DX002 (ip), vehicle: Klucel (hydroxypropylcellulose) (HPC)
[17] = dose: 400.0 mg/kg/injection, schedule: Q01DX001 (ip), vehicle: Klucel (hydroxypropylcellulose) (HPC)
[18] = dose: 400.0 mg/kg/injection, schedule: Q04DX002 (ip), vehicle: Klucel (hydroxypropylcellulose) (HPC)
[19] = dose: 50.0 mg/kg/injection, schedule: Q01DX009 (ip), vehicle: saline with Tween-80
[20] = dose: 100.0 mg/kg/injection, schedule: Q01DX009 (ip), vehicle: saline with Tween-80
[21] = dose: 200.0 mg/kg/injection, schedule: Q01DX009 (ip), vehicle: saline with Tween-80
[22] = dose: 100.0 mg/kg/injection, schedule: Q01DX001 (ip), vehicle: saline with Tween-80
[23] = dose: 200.0 mg/kg/injection, schedule: Q01DX001 (ip), vehicle: saline with Tween-80
[24] = dose: 400.0 mg/kg/injection, schedule: Q01DX001 (ip), vehicle: saline with Tween-80

Measured: T/C

FC(F)(F)C(Cl)Br (stereo unspecified)
inactive: [1] 106 % of control | dose: 50.0 mg/kg/injection, schedule: Q04DX003 (ip), vehicle: saline 104 % of control | [2] 101 % of control | [3] 98 % of control | dose: 100.0 mg/kg/injection, schedule: Q04DX003 (ip), vehicle: saline 97 % of control | [4] 98 % of control | [5] 97 % of control | dose: 225.0 mg/kg/injection, schedule: Q04DX003 (ip), vehicle: saline 101 % of control | dose: 335.0 mg/kg/injection, schedule: Q04DX003 (ip), vehicle: saline 96 % of control | [6] 106 % of control | dose: 1000.0 mg/kg/injection, schedule: Q05DX002 (ip), vehicle: water 97 % of control | dose: 2000.0 mg/kg/injection, schedule: Q05DX002 (ip), vehicle: water 108 % of control

Nc1ncnc2c1ncn2C1CC(COP(=O)(O)O)C(O)C1O (stereo unspecified)
inactive: dose: 37.0 mg/kg/injection, schedule: Q04DX003 (ip), vehicle: saline 105 % of control | dose: 75.0 mg/kg/injection, schedule: Q01DX001 (ip), vehicle: saline 107 % of control | dose: 75.0 mg/kg/injection, schedule: Q04DX003 (ip), vehicle: saline 110 % of control | dose: 150.0 mg/kg/injection, schedule: Q01DX001 (ip), vehicle: saline 87 % of control | [4] 100 % of control

BrCCCC1CCCCC1
inactive: [7] 104 % of control | [8] 100 % of control | [9] 97 % of control | [10] 104 % of control | [11] 92 % of control | [12] 105 % of control

C/C(CC(C)C)=N\NC(=O)Nc1cccc(Cl)c1C
inactive: [13] 86 % of control | [7] 99 % of control and 103 % of control | [14] 98 % of control and 92 % of control | [15] 93 % of control | [9] 96 % of control and 99 % of control | [16] 103 % of control and 92 % of control | [17] 93 % of control | [11] 93 % of control and 95 % of control | [18] 95 % of control

NC(CSSc1ccccc1)=NC1CCCCC1
inactive: dose: 12.5 mg/kg/injection, schedule: Q04DX002 (ip), vehicle: other 98 % of control | dose: 25.0 mg/kg/injection, schedule: Q04DX002 (ip), vehicle: other 109 % of control | dose: 50.0 mg/kg/injection, schedule: Q04DX002 (ip), vehicle: other 91 % of control

CCOCC(=O)CC1CCCC1
inactive: [19] 103 % of control | [20] 100 % of control | [21] 95 % of control

O=Cc1[nH]c(=S)[nH]c(=O)c1Cc1ccc(Br)cc1
inactive: [22] 106 % of control | [20] 94 % of control | [23] 98 % of control | [21] 91 % of control | [24] 98 % of control | dose: 400.0 mg/kg/injection, schedule: Q01DX009 (ip), vehicle: saline with Tween-80 98 % of control

N#CC(C#N)=Cc1ccc2ccc3cccc4ccc1c2c34
inactive: [8] 91 % of control | [10] 93 % of control | [12] 93 % of control

Cc1cccc(C)c1-c1c2ccccc2cc2ccccc12
inactive: dose: 100.0 mg/kg/injection, schedule: Q01DX009 (ip), vehicle: saline 95 % of control | [3] 96 % of control | dose: 200.0 mg/kg/injection, schedule: Q01DX009 (ip), vehicle: saline 93 % of control | [5] 96 % of control | dose: 400.0 mg/kg/injection, schedule: Q01DX009 (ip), vehicle: saline 87 % of control | [6] 93 % of control

COc1ccc(-c2c([N+](=O)[O-])ccc(Cl)c2[N+](=O)[O-])cc1
inactive: dose: 50.0 mg/kg/injection, schedule: Q01DX001 (ip), vehicle: carboxymethylcellulose (CMC) 94 % of control | dose: 100.0 mg/kg/injection, schedule: Q01DX001 (ip), vehicle: carboxymethylcellulose (CMC) 117 % of control | dose: 200.0 mg/kg/injection, schedule: Q01DX001 (ip), vehicle: carboxymethylcellulose (CMC) 107 % of control | dose: 400.0 mg/kg/injection, schedule: Q01DX001 (ip), vehicle: carboxymethylcellulose (CMC) 102 % of control

O=C1C(c2ccccc2)=C(c2ccccc2)C2(c3ccccc3)CN=NC12c1ccccc1 (stereo unspecified)
inactive: [8] 90 % of control | [10] 94 % of control | [12] 92 % of control

Cc1ccc(NC(=O)c2ccco2)cc1Cl
inactive: [13] 93 % of control | [14] 102 % of control | [15] 89 % of control | [16] 118 % of control | [17] 105 % of control | [18] 123 % of control

Cc1ccc(NC(=O)Oc2ccc(Nc3ccccc3)cc2)cc1
inactive: [7] 103 % of control | [14] 98 % of control | [9] 95 % of control | [16] 95 % of control | [11] 98 % of control | [18] 91 % of control

CNC1C(OC2C(OC3C(O)C(O)C(N=C(N)N)C(O)C3N=C(N)N)OC(C)C2(O)C=O)OC(CO)C(O)C1O (stereo unspecified)
inactive: [2] 108 % of control | dose: 200.0 mg/kg/injection, schedule: Q01DX001 (ip), vehicle: saline 106 % of control | dose: 400.0 mg/kg/injection, schedule: Q01DX001 (ip), vehicle: saline 114 % of control

CC(=O)OC12CC[N+]3(C)CCCCC3C1=Nc1ccccc12 (stereo unspecified)
inactive: dose: 6.25 mg/kg/injection, schedule: Q01DX009 (ip), vehicle: saline 98 % of control | dose: 10.0 mg/kg/injection, schedule: Q01DX001 (ip), vehicle: carboxymethylcellulose (CMC) 102 % of control | dose: 12.5 mg/kg/injection, schedule: Q01DX009 (ip), vehicle: saline 102 % of control | dose: 20.0 mg/kg/injection, schedule: Q01DX001 (ip), vehicle: carboxymethylcellulose (CMC) 105 % of control | dose: 25.0 mg/kg/injection, schedule: Q01DX009 (ip), vehicle: saline 102 % of control | [1] 103 % of control | dose: 40.0 mg/kg/injection, schedule: Q01DX001 (ip), vehicle: carboxymethylcellulose (CMC) 100 % of control | dose: 80.0 mg/kg/injection, schedule: Q01DX001 (ip), vehicle: carboxymethylcellulose (CMC) 102 % of control

c1ccc(NC2=NCCO2)nc1
inactive: [19] 100 % of control | [20] 94 % of control | [21] 102 % of control

CC1=CC2(C)Cc3cc(C)cc(C)c3S(=O)(=O)C2C(C(=O)O)=C1 (stereo unspecified)
inactive: dose: 50.0 mg/kg/injection, schedule: Q01DX001 (ip), vehicle: Klucel (hydroxypropylcellulose) (HPC) 102 % of control | [13] 101 % of control | [15] 98 % of control | [17] 96 % of control

O=C(c1ccccc1)C1CC1(C(=O)c1ccccc1)c1ccccc1 (stereo unspecified)
inactive: [22] 103 % of control | [23] 103 % of control | [24] 88 % of control

CCCNC(=O)Oc1ccc(-c2ccccc2)cc1Cl
inactive: dose: 100.0 mg/kg/injection, schedule: Q04DX002 (ip), vehicle: saline with Tween-80 113 % of control | dose: 200.0 mg/kg/injection, schedule: Q04DX002 (ip), vehicle: saline with Tween-80 100 % of control | dose: 400.0 mg/kg/injection, schedule: Q04DX002 (ip), vehicle: saline with Tween-80 97 % of control
